According to US20100111943A1, “COMPOSITIONS AND METHODS FOR INHIBITING CANCER METASTASIS” (Medical College of Georgia Research Institute, Inc, priority 2007, published 2010):
Entries after “also recorded” stand apart in the source; their conditions may differ. One block for each molecule: values may come before it.

Legend:
K/R mutants of hsp90α = experiment: B-GA binding assay, HEK293 lysates expressing F-hsp90 K/R substitutions
Experimental: (§1) Biotinylated (B)-GA binding to hsp90 was assessed as described previously 26. Briefly, cell-lysates were incubated with or without 17-AAG (Developmental Therapeutics Branch of CTEP/NCI/NIH) for 1 hour at 4° C., and then incubated with B-GA to displace 17-AAG from hsp90 for another 1 h. GM-bound hsp90 was captured by biotin-GA linked to streptavidin Mutein Matrix (Roche Diagnostics, Indianapolis, Ind.) for 1 h at 4° C. The unbound supernatant was removed and the beads were washed three times with lysis buffer. The precipitates were immunoblotted for hsp90.
Following treatment with either vehicle or 100 nM of LBH, cell lysates from HEK293 cells expressing F-hsp90 or K/R substitutions were incubated with vehicle or 50 nM of 17-AAG followed by incubation with B-GA and streptavidin coated agarose beads. Precipitates from streptavidin coated beads were analyzed with anti-F antibody.

hsp90α [1] = molecular target: T1, hsp90α (Homo sapiens, UniProt P07900); experiment: Biotinylated-geldanamycin (B-GA) binding assay, MDA-MB-468 cell lysates
T1 construct: acetylation of the endogenous hsp90α due to treatment with LBH589; endogenous in cells; host or cells: MDA-MB-468
Experimental: as §1
Cell lysates containing hsp90α and ATP-sepharose were also incubated with B-GA followed by streptavidin coated agarose beads and eluted proteins were analyzed with anti-F antibody. […] MB-468 cells cultured in DMEM medium containing 10% FBS were treated with the indicated concentration of LBH589 for 16 hours. Following this, cell lysates were incubated with B-GA followed by streptavidin coated agarose beads and eluted proteins were analyzed with anti-hsp90α antibody. Acetylation and expression level of endogenous hsp90 were detected with anti-AcK and anti-hsp90 antibody, respectively.
MB-468 cells ectopically expressing F-hsp90α were treated with 100 nM of LBH589 for 16 hours. Following this, equal amount of cell lysates were incubated with 0, 5, 10 or 50 nM of 17-AAG for 30 min at 4° C., followed by incubation with B-GA and streptavidin-coated agarose beads. Precipitates from streptavidin coated beads were analyzed with anti-F antibody.

F-hsp90α = experiment: Acetylation of F-hsp90α in HEK293 cells (immunoprecipitation, anti-AcK immunoblot); type: cell-based; conditions: HEK293 cells with ectopic expression of FLAG (F)-hsp90α
Experimental: Following culture in the plates for 24 hours, cells were transfected by Lipofectamine Plus following the protocol provided by Invitrogen (Carlsbad, Calif.). Transfected cells were cultured in full-medium containing drugs dissolved in DMSO or vehicle for 24 hours. Cellular extracts were prepared by directly adding lysis buffer (25 mM Tris-phosphate, pH 7.8, 2 mM DTT, 2 mM 1,2-diaminocyclohexane-N′,N′,N′,N′-tetraacetic acid, 10% glycerol, 0.2% Triton X-100) to the cells on ice. For immuno-precipitations (IP), 2×10^6 cells in 100 mm dishes were transfected and/or treated as described above. Cellular extracts were prepared and immunoprecipitation performed as described 24. For immunoblotting, cellular extracts or immunoprecipitates were separated on SDS-PAGE, transferred to a nitrocellulose membrane, probed with antibodies, and visualized with enhanced chemiluminescence, as described (Chen, Z., et al., Mol. Pharmacol., 69:1527-33 (2006)).
Hsp90 is acetylated both in vitro and in vivo. […] To determine whether p300 acts as the HAT for hsp90α, following incubation with p300 and acetyl-CoA, in vitro translated hsp90α was analyzed for its acetylation status by Western analysis with anti-AcK antibody. p300 was necessary for the acetylation of hsp90α in the in vitro assay. […] In HEK293 cells, it was determined that p300 can be coimmunoprecipitated with hsp90α. […]

hsp90α [2] = experiment: Export and extracellular localization of hsp90α from serum-starved T47D cells (immunoblot of medium); type: cell-based
Excerpt: Previous reports have shown that the inducible isoform hsp90α, but not hsp90β, can be secreted and found on the surface of cancer cells, although it lacks the classical signal sequence (Eustace, B. K., et al., Nat Cell Biol., 6:507-14 (2004); Eustace, B. et al., Cell Cycle., 3:1098-1100 (2004)). […] Concentrated extra-cellular medium or cell lysates from T47D cells, which were either serum-starved or cultured in 10% FBS, were immunoblotted with anti-hsp90α antibody. β-actin served as a loading control. Under starvation, both endogenous and exogenous hsp90α are secreted from T47D cells in the acetylated form. Extra-cellular hsp90α was immunoprecipitated with anti-AcK antibody and immunoblotted with either anti-hsp90α or M2 antibody.
To further verify this, the export and extracellular location of acetylation mimetic (K/Q) or acetylation-resistant (K/R) mutants transfected into T47D cells that were cultured under serum-free condition were determined. In serum-starved T47D cells, K/R substitutions at K69, K100 and K558 decrease, while K/Q substitutions increase the level of extracellular hsp90α. Supernatants of serum starved T47D cells transfected with the F-tagged hsp90α mutant constructs K69Q, K100Q, K292Q, K327Q, K478Q, K546Q, and K558Q were concentrated and immunoblotted with anti-F antibody. Coomassie-stained non-specific proteins served as the loading control. […]

acetylated hsp90α = experiment: Confocal microscopy of membrane-associated acetylated hsp90α, MB-231 cells; type: cell-based; conditions: serum-starved MB-231 cells, 40 nM LBH589 for 16 hours, anti-Ac-K69 staining
Experimental: MDA-MB-231 cells were cultured in a chamber slide in RPMI medium with 10% FBS or under serum-free conditions with or without 40 nM LBH589 for 16 hours and stained with anti-acetyl (Ac)-[…] antibody. Briefly, after 16 hours incubation, cells were washed with PBS and fixed with 4% paraformaldehyde for 10 minutes. Following this, the slides were blocked with 3% BSA for 30 minutes and incubated with primary antibody at a dilution of 1:100 in blocking buffer for 2 hours. Following three washes with PBS the slides were incubated in Alexa Fluor 488 anti-rabbit secondary antibody (Molecular probes, Invitrogen) for one hour at 1:3000 dilution. After three washes with PBS, the cells were counterstained with DAPI using Vectashield mountant with DAPI and imaged using Zeiss LSM510 confocal microscope. […] Serum-starved MB-231 cells were treated with 40 nM LBH589 for 16 hours, followed by staining with anti-AcK69 hsp90α antibody and confocal microscopy. Cells cultured in RPMI with 10% FBS and cells stained with rabbit IgG served as controls.

[3] = test system: acetylated hsp90α with MMP-2; experiment: Extracellular co-immunoprecipitation of acetylated hsp90α with MMP-2, MDA-MB-231 supernatant; type: cell-based; conditions: supernatant of serum starved LBH treated MDA-MB-231 cells
Experimental: Supernatant of serum starved LBH treated MDA-MB-231 cells was concentrated and immunoprecipitates with anti-hsp90α antibody were immunoblotted with anti-AcK, anti-MMP-2 or hsp90α antibody. […] Whether increased extracellular location of K69Q, K100Q or K558Q mutant promotes in vitro invasiveness of breast cancer cells was determined. For this, stable transfectants of MB-468 cells expressing the wild-type hsp90α we created, or the K/Q or K/R mutants of hsp90α at the residues K69, K100 and K558, and their in vitro invasiveness in the matrigel-based assay was evaluated.

MB-231 cells = experiment: In vitro matrigel invasion assay, MB-231 cells; type: cell-based; conditions: 10, 20, 40 nM LBH589 (FIG. 1A)
Experimental: In vitro invasion assay were performed, as previously described 12, 27 by using the Cultrex® Cell Invasion Assay kit (RandD Systems, Minneapolis, Minn.). In brief, serumstarved cells in 50 μL serum-free medium with or without antibody or IgG were placed in the top chamber and allowed to invade for 24 hours. The lower chambers (assay chamber) were filled with 10% FBS medium. After incubation, migrated cells on the […] chamber of the membrane were dissociated with cell dissociation solution containing Calcein AM at 37° C. for 1 hour and read the bottom plate at 485 nm excitation and 520 nm emission.
The effect of anti-hsp90α with anti-Ac-K69 hsp90α antibody on the in vitro invasiveness of MB-231 breast cancer cells was compared. Serum-starved MB-231 cells treated with 20 μg/mL anti-hsp90α or anti-AcK69 hsp90α antibody were used for determining in vitro matrigel invasion (see Example 4 for protocol). Untreated cells, or cells treated with IgG were used as controls.

hsp90α [4] = experiment: Acetylation of hsp90α in MB-231 cells (immunoblot with anti-AcK69-hsp90α antibody); type: cell-based; conditions: MB-231 cells treated with LBH589
Excerpt: Next, a polyclonal antibody was generated against the acetylated K69-containing peptide of hsp90α (anti-Ac-K69). The specificity of the antibody was confirmed by determining its ability to detect the increase in the acetylation of the ectopically expressed […] hsp90α following treatment with the HDAC inhibitor LBH589. MB-231 cells were transfected with F-hsp90α followed by the treatment with LBH589. Immunoprecipitates of F-hsp90α with anti-M2 conjugated beads were immunoblotted with anti-K69-hsp90α antibody for the acetylation status and anti-F antibody for F-hsp90α expression. Cells transfected with empty vector followed the treatment with LBH589 served as control for specificity. Acetylation of endogenous hsp90αinduced by LBH589 was also detected with anti-AcK69-hsp90α antibody. Immunoprecipitates of endogenous hsp90α with anti-hsp90α antibody from cell lysates of MB-231 cells treated with or without LBH589 were immunoblotted with either anti-AcK69-hsp90α or anti-hsp90α (rabbit) antibody. IgG served as the control for specificity of the immunoprecipitates.

Molecule: 17-allylamino-17-demethoxygeldanamycin [17-AAG]
- 17-AAG binding to K/R mutants (displacement of B-GA) (K/R mutants of hsp90α; HEK293 lysates after 100 nM LBH, 50 nM 17-AAG): decreased binding of K/R mutants to 17-AAG
- displacement of B-GA binding to hsp90 (hsp90α [1]; lysates incubated with 0, 5, 10 or 50 nM 17-AAG for 30 min at 4° C., cells exposed or unexposed to LBH589): B-GA binding to hsp90 was reduced by 17-AAG treatment

Molecule: O=C(CCCCCCC(=O)Nc1ccccc1)NO [vorinostat]
- acetylation of F-hsp90α (F-hsp90α): hyper-acetylation of F-hsp90α

- B-GA binding of K/R mutants of hsp90α (K/R mutants of hsp90α; HEK293 cells, 100 nM LBH): increased binding to B-GA
- B-GA binding of hsp90α (hsp90α [1]; MDA-MB-468 cells treated with LBH589 for 16 hours): increase in B-GA binding of hsp90α
Molecule: Cc1[nH]c2ccccc2c1CCNCc1ccc(/C=C/C(=O)NO)cc1 [LBH589]
- export and extracellular location of K/R mutants of hsp90α (hsp90α [2]; serum-starved T47D cells transfected with K/R mutants, cotreatment with LBH589): increased the export and extracellular location of K/R mutants of hsp90α to a variable extent; also recorded: promote extracellular localization of K/R mutants of hsp90α
- export and extracellular localization of hyper-acetylated hsp90α (hsp90α [2]; serum-starved T47D cells, 0, 25, 50 or 100 nM LBH589): promoted and increased the export and extracellular localization of hyper-acetylated hsp90α; also recorded: occurs in a dose dependent manner
- levels of membrane associated acetylated hsp90α (acetylated hsp90α): increased levels of the membrane associated acetylated hsp90α
- extra-cellular binding of acetylated hsp90α with MMP-2 [3]: increased extra-cellular binding of acetylated hsp90α with MMP-2
- acetylation of F-hsp90α (F-hsp90α): hyper-acetylation of F-hsp90α
- matrigel invasion by MB-231 cells (MB-231 cells): dose dependently increased matrigel invasion
- acetylated hsp90α detected by anti-Ac-K69 hsp90α antibody (hsp90α [4]): increase in the acetylated hsp90α
- 17-AAG binding to acetylated endogenous hsp90 (hsp90α [1]; MDA-MB-468 cells, 100 nM LBH589 for 16 hours, then lysates with 0, 5, 10 or 50 nM 17-AAG): promoted 17-AAG binding to the acetylated endogenous hsp90
